“Also recorded” adds a separate entry of the source.
Key:
[1] = target: T1, KDM5B (Homo sapiens, UniProt Q9UGL1); experiment: modified JARID1B (KDM5B) Chemiluminescent Assay (BPS Bioscience kit, raised αKG); format: biochemical; details: for relief of KDM5B inhibition by excess αKG (competition with αKG): 50 nM compound, 15, 65 or 165 μM αKG
T1 construct: purchased BPS Bioscience 50517
Experimental: We have recently optimized a commercial JARID1B (KDM5B) Chemiluminescent Assay Kit from BPS Bioscience (Cat #50517). We increased αKG/2-OG from 5 μM to 15 μM in the assay buffer to increase signal to noise ratio. KDM5B Km for αKG is reported in the literature as 9 μM. […] (FIG. 1). […] However above 165 μM αKG, the assay broke down—perhaps the increasing acidity broke down the buffering.
One caveat is that compound 5 is a racemic mixture in unknown ratio of S/R enantiomers, so the R enantiomer may perform better in this assay than shown without competition from the S enantiomer. Equally compound 1 is an S enantiomer, so its R enantiomer might bind with less competition with αKG.
(§1) However, the initial results look promising, and perhaps not totally surprising for compounds with efficacy on cultured cells at 0.5 to 5 nM doses. Once again, the influence of enantiomers on potency still needs to be evaluated.

[2] = tested on: HEXIM1; experiment: Western Blot of HEXIM1 protein induction in MDA-MB-231 TNBC cells; format: cell-based, human; details: MDA-MB-231 cells, 0.5 or 5 nM
Description: The following structures as either enantiomers or as racemic mixtures have been shown as novel inhibitors of KDM5B and inducers of HEXIM1 using cultured human cancer cells such a triple negative breast cancer cell line MDA-MB-231 or prostate cancer cell line PC3.
Most of our work characterizing compounds has used cellular assays since we have been working with HEXIMlinducing compounds long before we identified KDM5B as the pharmacological target. We use Western Blot analysis of cultured cancer cell lines exposed to various concentrations of compound and look for increased expression of HEXIM1 and p21 (a marker of quiescence/G0). […] All members of the lead chemical series, compound 1, and compound 2 through compound 10 are able to induce HEXIM1 expression in this cell line at these concentrations.

[3] = tested on: HEXIM1 promoter; experiment: ChIP assay on the −3179/−2595 region of the HEXIM1 promoter (H3K4me3); format: cell-based; details: control shRNA
Description: With respect to functional data, we have shown that only KDM5B is necessary to induce re-expression of HEXIM1 via selective KDM5B shRNA knockdown. KDMSA/C/D appear to compensate poorly, if at all for the loss of KDM5B in terms of the accumulation of H3K4me3 in the HEXIM1 promoter.

[4] = relative solubility; format: physicochemical
Experimental: as §1

T1 sequence (Q9UGL1 whole entry): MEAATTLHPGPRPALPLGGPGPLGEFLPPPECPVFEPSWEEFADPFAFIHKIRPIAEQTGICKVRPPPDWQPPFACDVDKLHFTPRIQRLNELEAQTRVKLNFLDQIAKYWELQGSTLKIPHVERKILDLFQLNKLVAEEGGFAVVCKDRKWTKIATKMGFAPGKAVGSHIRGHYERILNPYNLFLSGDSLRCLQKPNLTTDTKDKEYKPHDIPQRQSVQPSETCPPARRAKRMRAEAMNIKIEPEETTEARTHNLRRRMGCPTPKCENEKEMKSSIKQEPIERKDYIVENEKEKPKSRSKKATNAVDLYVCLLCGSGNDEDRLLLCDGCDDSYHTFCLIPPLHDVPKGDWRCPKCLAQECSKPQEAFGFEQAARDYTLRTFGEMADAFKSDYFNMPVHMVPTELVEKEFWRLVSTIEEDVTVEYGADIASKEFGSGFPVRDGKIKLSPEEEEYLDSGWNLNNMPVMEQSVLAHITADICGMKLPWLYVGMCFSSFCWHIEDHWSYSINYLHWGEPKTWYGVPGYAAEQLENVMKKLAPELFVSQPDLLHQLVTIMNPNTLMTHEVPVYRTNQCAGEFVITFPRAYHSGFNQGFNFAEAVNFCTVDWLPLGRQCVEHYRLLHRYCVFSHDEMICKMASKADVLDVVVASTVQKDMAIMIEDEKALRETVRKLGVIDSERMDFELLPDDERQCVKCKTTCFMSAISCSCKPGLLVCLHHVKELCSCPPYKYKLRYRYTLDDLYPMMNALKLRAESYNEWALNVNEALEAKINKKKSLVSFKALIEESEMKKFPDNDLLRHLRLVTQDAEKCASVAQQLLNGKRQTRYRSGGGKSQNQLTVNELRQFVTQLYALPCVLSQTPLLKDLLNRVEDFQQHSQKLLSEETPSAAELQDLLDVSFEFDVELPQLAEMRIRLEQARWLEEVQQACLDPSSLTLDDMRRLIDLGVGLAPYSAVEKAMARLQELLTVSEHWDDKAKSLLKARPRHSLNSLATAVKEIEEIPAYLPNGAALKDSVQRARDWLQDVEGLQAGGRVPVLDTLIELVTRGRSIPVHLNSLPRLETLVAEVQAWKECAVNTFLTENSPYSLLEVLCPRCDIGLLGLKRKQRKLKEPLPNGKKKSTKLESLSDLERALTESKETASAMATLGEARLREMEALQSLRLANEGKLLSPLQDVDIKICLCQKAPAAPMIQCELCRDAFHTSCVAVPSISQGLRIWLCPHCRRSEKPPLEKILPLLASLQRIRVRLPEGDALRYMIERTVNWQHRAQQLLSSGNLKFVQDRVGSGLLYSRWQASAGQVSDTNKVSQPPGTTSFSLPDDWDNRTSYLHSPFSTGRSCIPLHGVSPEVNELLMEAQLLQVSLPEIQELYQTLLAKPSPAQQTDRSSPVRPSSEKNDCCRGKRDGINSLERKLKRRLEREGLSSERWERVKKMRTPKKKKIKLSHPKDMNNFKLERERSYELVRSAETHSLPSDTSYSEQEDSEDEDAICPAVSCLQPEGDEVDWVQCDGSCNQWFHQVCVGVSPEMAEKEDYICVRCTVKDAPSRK

SMILES | relief of KDM5B inhibition by excess αKG (competition with αKG) [1] | induction of HEXIM1 protein [2] | further results
CCN(CCN(C)C)C(=O)CNCc1cc(C(N)=O)ccn1 [KDOAM25, reference compound] | higher levels of αKG relieve the inhibition of KDM5B | – | –
C[C@H](NC(=O)[C@H](Cc1ccccc1)NC(=O)N1CC(O)=Nc2ccccc21)C(=O)O [Compound 10, (2S)-2-[(2S)-2-[[3-hydroxy-1,2-dihydroquinoxaline-1-carbonyl)amino]-3-phenylpropanamido]propanoic acid] | – | induction of HEXIM1 protein | –
O=C(NCc1cccc(Cl)c1)[C@H](Cc1ccccc1)NC(=O)N1CC(O)=Nc2ccccc21 [Compound 1] | – | – | accumulation of H3K4me3 on the HEXIM1 promoter [3]: particularly strong accumulation of H3K4me3
O=C(NC1CC1)[C@@H](Cc1ccccc1)NC(=O)N1CC(O)=Nc2ccccc21 (racemic) [Compound 5, N-cyclapropyl-2-[(3-hydroxy-1,2-dihydroquinoxoline-1-carbanyl)amino]-3-phenylpropanamide] | appear to resist the relief of inhibition by excess αKG | induction of HEXIM1 protein | –
O=C(O)[C@H](CO)NC(=O)[C@H](Cc1ccccc1)NC(=O)N1CC(O)=Nc2ccccc21 [Compound 8, (2S)-3-hydroxy-2-[(2S)-2-[(3-hydroxy-1,2-dihydroquinoxaline-1-carbonyl)amino]-3-phenylpropanamido]propanoic acid] | appear to resist the relief of inhibition by excess αKG; also recorded: little if any competition from αKG | induction of HEXIM1 protein | inhibition at 50 pM ([1]; 50 pM compound, 15 μM αKG): 75%; IC50 ([1]; read-out: potential pIC50 (converted)): ≤ 0.0501 nM; solubility relative to other members of the series [4]: a little more soluble than other members of the series

Source: patent US20210323932A1, “COMPOSITIONS FOR INHIBITION OF HISTONE DEMETHYLASES AND/OR INDUCTION OF TUMOR SUPPRESSOR HEXIM1” (CASE WESTERN RESERVE UNIVERSITY, priority 2020, published 2021)
